This passage reports IC50 results from patent US20120015907A1, “Furopyridine compounds and uses thereof” (NOVARTIS AG, priority 2010, published 2012).

One assay deals with T1, HCV polymerase (Hepatitis C virus genotype 1b, UniProt Q9WMX2).
T1 construct: (His)6 (C)
The assay is described as follows: biochemical. Particulars: NS5B polymerase IC50 μM, polymerase assay of Biological Example 1.
Consider `CCOP(C)(=O)CCCCN(c1nc2oc(-c3ccc(CC)cc3)c(C(=O)NC)c2cc1I)S(C)(=O)=O` (centres unmarked) [Example 23.9991, ethyl 4-(N-(2-(4-ethylphenyl)-5-iodo-3-(methylcarbamoyl)furo[2,3-b]pyridin-6-yl)methylsulfonamido) butyl(methyl)phosphinate], for which the IC50 turned out to be 0.026 µM.

Molecule `CNC(=O)c1c(-c2ccc(C)cc2)oc2nc(N(CCCCCP(C)(=O)O)S(C)(=O)=O)c(I)cc12` [Example 23.9998, 5-(N-(5-iodo-3-(methylcarbamoyl)-2-p-tolylfuro[2,3-b]pyridin-6-yl)methylsulfonamido)pentyl (methyl)phosphinic acid] registered a half-maximal inhibitory concentration (IC50) of 0.011 µM.

In turn, `CCOP(C)(=O)CCCN(c1nc2oc(-c3ccc(C)cc3)c(C(=O)NC)c2cc1C1CC1)S(C)(=O)=O` (centres unmarked) [Example 23.99992, ethyl 3-(N-(5-cyclopropyl-3-(methylcarbamoyl)-2-p-tolylfuro[2,3-b]pyridin-6-yl)methylsulfonamido)propyl (methyl)phosphinate] returned a half-maximal inhibitory concentration (IC50) of 0.007 µM.

Staying with this assay, now noted: polymerase assay of Biological Example 1; read-out: NS5B polymerase IC50.
With `CNC(=O)c1c(-c2ccc(C)cc2)oc2nc(N(CCCCCN)S(C)(=O)=O)c(C3CC3)cc12` [Example 23.999994, 6-(N-(5-aminopentyl)methylsulfonamido)-5-cyclopropyl-N-methyl-2-p-tolylfuro[2,3-b]pyridine-3-carboxamide], the IC50 came out at 0.014 µM.

For `CNC(=O)c1c(-c2ccc(C)cc2)oc2nc(N(CCOCCC(CCOC)C(=O)O)S(C)(=O)=O)c(C3CC3)cc12` (centres unmarked) [Example 23.999999, 4-{2-[(5-Cyclopropyl-3-methylcarbamoyl-2-p-tolyl-furo[2,3-b]pyridin-6-yl)-methanesulfonyl-amino]-ethoxy}-2-(2-methoxy-ethyl)-butyric acid], the IC50 was 0.02 µM.

`CNC(=O)c1c(-c2ccc(C)cc2)oc2nc(N(CCC[C@@H](C)C(=O)O)S(C)(=O)=O)c(C3CC3)cc12` [Example 47.3, (R)-5-(N-(5-cyclopropyl-3-(methylcarbamoyl)-2-p-tolylfuro[2,3-b]pyridin-6-yl)methylsulfonamido)-2-methylpentanoic acid]: the IC50 worked out at 0.003 µM.

For `CCc1cc2c(C(=O)NC)c(-c3ccc(F)cc3)oc2nc1N(C(C)C)S(C)(=O)=O` [Example 22.993, 5-ethyl-2-(4-fluorophenyl)-6-(N-isopropylmethylsulfonamido)-N-methylfuro[2,3-b]pyridine-3-carboxamide], the concentration for half-maximal inhibition (IC50) is 1.06 µM.

For the molecule `CCOC(=O)/C=C/CCCN(c1nc2oc(-c3ccc(C)cc3)c(C(=O)NC)c2cc1C1CC1)S(C)(=O)=O` [Example 44.1, (E)-ethyl 6-(N-(5-cyclopropyl-3-(methylcarbamoyl)-2-p-tolylfuro[2,3-b]pyridin-6-yl)methylsulfonamido)hex-2-enoate], the 50% inhibitory concentration (IC50) came to 0.005 µM.

As to `C=CCN(c1nc2oc(-c3ccc(C)cc3)c(C(=O)NC)c2cc1C1CC1)S(C)(=O)=O` [Example 29.97, 6-(N-allylmethylsulfonamido)-5-cyclopropyl-N-methyl-2-p-tolylfuro[2,3-b]pyridine-3-carboxamide], the IC50 worked out at 0.003 µM.

Regarding `CNC(=O)c1c(-c2ccc(C)cc2)oc2nc(N(CCC[C@H](C)C(=O)NCCCC(=O)O)S(C)(=O)=O)c(C3CC3)cc12` [Example 29.999991, (S)-4-(5-(N-(5-cyclopropyl-3-(methylcarbamoyl)-2-p-tolylfuro[2,3-b]pyridin-6-yl)methylsulfonamido)-2-methylpentanamido)butanoic acid], the half-inhibitory concentration (IC50) worked out at 0.02 µM.

`CNC(=O)c1c(-c2ccc(C)c(F)c2)oc2nc(N(CCCCC(=O)O)S(C)(=O)=O)c(C3CC3)cc12` [Example 29.999999, 5-(N-(5-cyclopropyl-2-(3-fluoro-4-methylphenyl)-3-(methylcarbamoyl)furo[2,3-b]pyridin-6-yl)methylsulfonamido) pentanoic acid]: the IC50 amounted to 0.002 µM.

On to `CNC(=O)c1c(-c2ccc(F)cc2)oc2nc(N(CCCCN)S(C)(=O)=O)c(I)cc12` [Example 20, 6-[(4-Amino-butyl)-methanesulfonyl-amino]-2-(4-fluoro-phenyl)-5-iodo-furo[2,3-b]pyridine-3-carboxylic acid methylamide], for which the IC50 is 1.84 µM.

`CNC(=O)c1c(-c2ccc(C)cc2)oc2nc(N(C)S(C)(=O)=O)c(CC(O)CO)cc12` (centres unmarked) [Example 9.1, 5-(2,3-dihydroxypropyl)-N-methyl-6-(N-methylmethylsulfonamido)-2-p-tolylfuro[2,3-b]pyridine-3-carboxamide]: the IC50 stood at 0.117 µM.

Regarding `CCc1cc2c(C(=O)NC)c(-c3ccc(F)cc3)oc2nc1N(CCCC(C)(C)C(=O)OCC(C)C)S(C)(=O)=O` [Example 21.3, isobutyl 5-(N-(5-ethyl-2-(4-fluorophenyl)-3-(methylcarbamoyl)furo[2,3-b]pyridin-6-yl)methylsulfonamido)-2,2-dimethylpentanoate], the IC50 worked out at 0.134 µM.

On to `CNC(=O)c1c(-c2ccc(C)cc2)oc2nc(N(CCCCCBr)S(C)(=O)=O)c(C3CC3)cc12` [Example 29.998, 6-(N-(5-bromopentyl)methylsulfonamido)-5-cyclopropyl-N-methyl-2-p-tolylfuro[2,3-b]pyridine-3-carboxamide], for which the half-maximal inhibitory concentration (IC50) is 0.003 µM.

Consider `CNC(=O)c1c(-c2ccc(C)cc2)oc2nc(N(CCCC#N)S(C)(=O)=O)c(C3CC3)cc12` [Example 29.5, 6-(N-(3-cyanopropyl)methylsulfonamido)-5-cyclopropyl-N-methyl-2-p-tolylfuro[2,3-b]pyridine-3-carboxamide], for which the IC50 came out at 0.002 µM.

On to `CNC(=O)c1c(-c2ccc(F)cc2)oc2nc(N(C)S(C)(=O)=O)c(C(C)C(F)(F)F)cc12` (centres unmarked) [Example 6.1, 2-(4-fluorophenyl)-N-methyl-6-(N-methylmethylsulfonamido)-5-(1,1,1-trifluoropropan-2-yl)furo[2,3-b]pyridine-3-carboxamide], for which the half-inhibitory concentration (IC50) was 0.043 µM.

Consider `CNC(=O)c1c(-c2ccc(F)cc2)oc2nc(N(CCc3ccccc3OC)S(C)(=O)=O)c(I)cc12` [Example 18.6, 2-(4-fluorophenyl)-5-iodo-6-(N-(2-methoxyphenethyl)methylsulfonamido)-N-methylfuro[2,3-b]pyridine-3-carboxamide], for which the IC50 stood at 0.573 µM.

Consider `CNC(=O)c1c(-c2ccc(C)cc2)oc2nc(N(CCCC(O)C(C)(C)C(=O)O)S(C)(=O)=O)c(C3CC3)cc12` (centres unmarked) [Example 50, 6-(N-(5-cyclopropyl-3-(methylcarbamoyl)-2-p-tolylfuro[2,3-b]pyridin-6-yl)methylsulfonamido)-3-hydroxy-2,2-dimethylhexanoic acid], for which the IC50 stood at 0.003 µM.

With `CNC(=O)c1c(-c2ccc(C)cc2)oc2nc(N(CCCC3(C(=O)O)CC3)S(C)(=O)=O)c(C3CC3)cc12` [Example 29.8, 1-(3-(N-(5-cyclopropyl-3-(methylcarbamoyl)-2-p-tolylfuro[2,3-b]pyridin-6-yl)mcthylsulfonamido)propyl) cyclopropanecarboxylic acid], the IC50 was found to be 0.002 µM.

Regarding `CNC(=O)c1c(-c2ccc(C)c(C)c2)oc2nc(N(CCCCC(=O)O)S(C)(=O)=O)c(C3CC3)cc12` [Example 29.999998, 5-(N-(5-cyclopropyl-2-(3,4-dimethylphenyl)-3-(methylcarbamoyl)furo[2,3-b]pyridin-6-yl)methylsulfonamido) pentanoic acid], the IC50 is 0.004 µM.

As for `CNC(=O)c1c(-c2ccc(F)cc2)oc2nc(N(CCC3CCS(=O)(=O)C3)S(C)(=O)=O)c(C3CC3)cc12` (centres unmarked) [Example 25.91, 5-Cyclopropyl-6-{[2-(1,1-dioxo-tetrahydro-thiophen-3-yl)-ethyl]-methanesulfonyl-amino}-2-(4-fluoro-phenyl)-furo[2,3-b]pyridine-3-carboxylic acid methylamide], the 50% inhibitory concentration (IC50) is 0.003 µM.

Regarding `CCc1cc2c(C(=O)NC)c(-c3ccc(F)cc3)oc2nc1N(CCCCC1=C(O)CCC1=O)S(C)(=O)=O` [Example 23.94, 5-ethyl-2-(4-fluorophenyl)-6-(N-(4-(2-hydroxy-5-oxocyclopent-1-enyl)butyl)methylsulfonamido)-N-methylfuro[2,3-b]pyridine-3-carboxamide], the IC50 is 0.044 µM.

For the molecule `CNC(=O)c1c(-c2ccc(F)cc2)oc2nc(N(CCCCC(=O)OC)S(C)(=O)=O)c(I)cc12` [Example 18, 5-{[2-(4-Fluoro-phenyl)-5-iodo-3-methylcarbamoyl-furo[2,3-b]pyridin-6-yl]-methanesulfonyl-amino}-pentanoic acid methyl ester], the IC50 worked out at 0.115 µM.

For the molecule `CNC(=O)c1c(-c2ccc(C)cc2)oc2nc(N(CCC(CC(=O)O)N(C)C)S(C)(=O)=O)c(C3CC3)cc12` (centres unmarked) [Example 44, 5-[(5-Cyclopropyl-3-methylcarbamoyl-2-p-tolyl-furo[2,3-b]pyridin-6-yl)-methanesulfonyl-amino]-3-dimethylamino-pentanoic acid], the IC50 is 0.02 µM.

Consider `CNC(=O)c1c(-c2ccc(C(F)(F)F)cc2)oc2nc(N(C)S(C)(=O)=O)c(I)cc12` [Example 2.91, 5-iodo-N-methyl-6-(N-methylmethylsulfonamide)-2-(4-(trifluoromethyl)phenyl)furo[2,3-b]pyridine-3-carboxamide], for which the IC50 was 0.802 µM.

In the case of `CNC(=O)c1c(-c2ccc(F)cc2)oc2nc(N(CCN(C)S(C)(=O)=O)S(C)(=O)=O)c(I)cc12` [Example 23.996, 2-(4-fluorophenyl)-5-iodo-N-methyl-6-(N-(2-(N-methylmethylsulfonamido)ethyl)methylsulfonamido) furo[2,3-b]pyridine-3-carboxamide], the IC50 worked out at 0.242 µM.

Take `CNC(=O)c1c(-c2ccc(C)cc2)oc2nc(N(CCCBr)S(C)(=O)=O)c(C3CC3)cc12` [Example 29.999, 6-(N-(3-bromopropyl)methylsulfonamido)-5-cyclopropyl-N-methyl-2-p-tolylfuro[2,3-b]pyridine-3-carboxamide]: the half-maximal inhibitory concentration (IC50) came to 0.004 µM.

Take `CCc1cc2c(C(=O)NC)c(-c3ccc(F)cc3)oc2nc1N(CCOCCN1C(=O)NC(C)(C)C1=O)S(C)(=O)=O` [Example 22.4, 6-(N-(2-(2-(4,4-dimethyl-2,5-dioxoimidazolidin-1-yl)ethoxy)ethyl)methylsulfonamido)-5-ethyl-2-(4-fluorophenyl)-N-methylfuro[2,3-b]pyridine-3-carboxamide]: the IC50 is 0.033 µM.

The term IC50 denotes the midpoint of a concentration-inhibition curve.
